In patent US7253171B2 (Laboratorios Almirall, S.A., priority 2001, dated 2007):

Each compound was assayed against T1, α4β1 integrin (Homo sapiens, UniProt P05556+P13612) (assay: U-937 cell adhesion to human VCAM-1 (α4β1 binding assay)). Details: U-937 cells, immobilized human VCAM-1; read-out: IC50 values in the α4β1 assays.
T1 construct: endogenous in cells; host or cells: U-937 cells
T1 sequence (P13612 34-1032): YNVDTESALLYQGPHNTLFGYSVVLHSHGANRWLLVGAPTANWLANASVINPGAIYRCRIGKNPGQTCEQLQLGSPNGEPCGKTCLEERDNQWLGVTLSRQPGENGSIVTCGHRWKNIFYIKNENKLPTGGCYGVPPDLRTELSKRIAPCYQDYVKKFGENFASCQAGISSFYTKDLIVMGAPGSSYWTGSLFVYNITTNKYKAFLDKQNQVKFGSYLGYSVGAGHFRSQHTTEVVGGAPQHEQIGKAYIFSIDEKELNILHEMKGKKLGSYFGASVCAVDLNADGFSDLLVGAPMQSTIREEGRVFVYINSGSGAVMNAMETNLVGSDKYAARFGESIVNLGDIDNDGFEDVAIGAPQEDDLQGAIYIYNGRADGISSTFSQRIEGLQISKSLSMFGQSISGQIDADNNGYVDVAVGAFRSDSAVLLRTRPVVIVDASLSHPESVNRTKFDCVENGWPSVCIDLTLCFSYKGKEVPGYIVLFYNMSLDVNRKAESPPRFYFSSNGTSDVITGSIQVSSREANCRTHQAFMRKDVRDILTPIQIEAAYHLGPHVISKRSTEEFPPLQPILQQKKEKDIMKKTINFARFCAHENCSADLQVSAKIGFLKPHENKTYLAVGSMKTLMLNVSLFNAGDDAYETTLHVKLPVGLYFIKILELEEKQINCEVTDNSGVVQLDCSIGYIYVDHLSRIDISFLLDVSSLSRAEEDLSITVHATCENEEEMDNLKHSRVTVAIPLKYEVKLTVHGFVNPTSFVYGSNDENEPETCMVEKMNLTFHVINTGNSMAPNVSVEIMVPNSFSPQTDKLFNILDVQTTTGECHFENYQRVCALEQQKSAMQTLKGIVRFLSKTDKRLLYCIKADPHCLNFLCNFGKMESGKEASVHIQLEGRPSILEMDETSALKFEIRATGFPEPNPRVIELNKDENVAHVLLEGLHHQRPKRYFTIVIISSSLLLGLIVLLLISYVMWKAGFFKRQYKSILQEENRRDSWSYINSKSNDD
T1 sequence (P05556 21-798): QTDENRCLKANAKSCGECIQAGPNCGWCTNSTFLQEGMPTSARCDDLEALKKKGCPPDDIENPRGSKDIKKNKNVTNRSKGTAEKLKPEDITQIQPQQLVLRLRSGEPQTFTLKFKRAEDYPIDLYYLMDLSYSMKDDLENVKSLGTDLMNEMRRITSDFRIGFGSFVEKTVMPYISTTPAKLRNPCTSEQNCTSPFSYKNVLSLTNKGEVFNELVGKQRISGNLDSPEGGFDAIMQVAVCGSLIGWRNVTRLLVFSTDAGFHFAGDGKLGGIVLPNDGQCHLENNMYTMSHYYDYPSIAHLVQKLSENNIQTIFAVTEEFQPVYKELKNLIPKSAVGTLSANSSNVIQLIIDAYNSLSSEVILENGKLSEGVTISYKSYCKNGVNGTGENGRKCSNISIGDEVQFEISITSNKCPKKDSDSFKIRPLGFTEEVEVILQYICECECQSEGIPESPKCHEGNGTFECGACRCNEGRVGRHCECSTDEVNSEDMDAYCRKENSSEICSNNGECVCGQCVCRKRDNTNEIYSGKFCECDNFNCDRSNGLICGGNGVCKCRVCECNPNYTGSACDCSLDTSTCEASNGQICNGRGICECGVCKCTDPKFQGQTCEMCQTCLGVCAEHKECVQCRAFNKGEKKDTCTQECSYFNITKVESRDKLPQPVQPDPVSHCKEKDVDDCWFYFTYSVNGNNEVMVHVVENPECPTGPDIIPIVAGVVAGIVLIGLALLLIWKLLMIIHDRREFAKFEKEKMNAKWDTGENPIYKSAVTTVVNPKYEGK
Assay type: cell-based
Method: U-937 Cell Adhesion to Human VCAM-1 (α4β1 Binding Assay)
Recombinant human soluble VCAM-1 (R&D Systems Ltd., UK) at 2 μg/ml in PBS was immobilized overnight onto microtiter plates. Unbound VCAM-1 was washed away and VCAM-1 coated plates were blocked with bovine serum albumin (BSA) 2,5% in PBS for 2 h at room temperature. U-937 cells were labelled with 5-carboxyfluorescein diacetate (5-CFDA) in order to detect bound cells to the wells. Test compounds were added to the wells followed by U-937 cells and the adhesion assay was performed for 1 h at 37° C. Following incubation, the wells were emptied and washed. Inhibition of binding was measured by the quantity of fluorescence bound to the plate for each of the various concentrations of test compound, as well as for controls containing no test compound, with a Cytofluor 2300 fluorescence measurement system.
Compound `CN(C(=O)c1ccccc1NC(=O)N[C@@H](Cc1ccc(NC(=O)c2c(Cl)cccc2Cl)cc1)C(=O)O)C1CCCCC1` [Example 2] has an IC50 of under 100 nM.
Work on `CCCCN(Cc1cccs1)S(=O)(=O)c1ccccc1NC(=O)N[C@@H](Cc1ccc(NC(=O)c2c(Cl)cccc2Cl)cc1)C(=O)O` [Example 20, (S)-2-{3-[2-(Butylthiophen-2-ylmethylsulfamoyl)phenyl]ureido}-3-[4-(2,6-dichlorobenzoylamino)phenyl]propionic acid] yielded an IC50 of under 100 nM.
`O=C(Nc1ccccc1S(=O)(=O)NCc1cccs1)N[C@@H](Cc1ccc(NC(=O)c2c(Cl)cccc2Cl)cc1)C(=O)O` [Example 21, (S)-3-[4-(2,6-Dichlorobenzoylamino)phenyl]-2-(3-{2-[(thiophen-2-ylmethyl)sulfamoyl]phenyl}ureido)propionic acid] was tested, and the IC50 was under 100 nM.
Compound `O=C(Nc1ccccc1S(=O)(=O)Nc1ccccc1)N[C@@H](Cc1ccc(NC(=O)c2c(Cl)cccc2Cl)cc1)C(=O)O` [Example 22, (S)-3-[4-(2,6-Dichlorobenzoylamino)phenyl]-2-[3-(2-phenylsulfamoylphenyl)ureido]propionic acid] has an IC50 of under 100 nM.
`CN(C(=O)N[C@@H](Cc1ccc(NC(=O)c2c(Cl)cccc2Cl)cc1)C(=O)O)c1ccccc1C(=O)N(C)C1CCCCC1` [Example 32] was tested, and the IC50 was under 100 nM.
For `O=C(Nc1ccccc1S(=O)(=O)c1ccccc1)N[C@@H](Cc1ccc(NC(=O)c2c(Cl)cccc2Cl)cc1)C(=O)O` [Example 36, (S)-2-[3-(2-Benzenesulfonylphenyl)ureido]-3-[4-(2,6-dichlorobenzoylamino)phenyl]propionic acid], the IC50 was under 100 nM.
`O=C(Nc1ccccc1Sc1ccccc1)N[C@@H](Cc1ccc(NC(=O)c2c(Cl)cccc2Cl)cc1)C(=O)O` [Example 44, (S)-3-[4-(2,6-Dichlorobenzoylamino)phenyl]-2-[3-(2-phenylsulfanylphenyl)ureido]propionic acid] was tested, and the IC50 was under 100 nM.
`O=C(Nc1cc(Cl)ccc1S(=O)(=O)c1ccccc1)N[C@@H](Cc1ccc(NC(=O)c2c(Cl)cccc2Cl)cc1)C(=O)O` [Example 48, (S)-2-[3-(2-Benzenesulfonyl-5-chlorophenyl)ureido]-3-[4-(2,6-dichlorobenzoylamino)phenyl]propionic acid] gave an IC50 of under 100 nM.
For `Cc1ccc(S(=O)(=O)c2ccc(Cl)c(NC(=O)N[C@@H](Cc3ccc(NC(=O)c4c(Cl)cccc4Cl)cc3)C(=O)O)c2)cc1` [Example 54, (S)-2-{3-[2-Chloro-5-(toluene-4-sulfonyl)phenyl]ureido}-3-[4-(2,6-dichlorobenzoylamino)phenyl]propionic acid], the IC50 was under 100 nM.
In the case of `O=C(Nc1cccnc1S(=O)(=O)c1ccccc1)N[C@@H](Cc1ccc(NC(=O)c2c(Cl)cccc2Cl)cc1)C(=O)O` [Example 58, (S)-2-[3-(2-Benzenesulfonylpyridin-3-yl)ureido]-3-[4-(2,6-dichlorobenzoylamino)phenyl]propionic acid], the IC50 is reported as under 100 nM.
`O=C(Nc1ccccc1S(=O)(=O)N1CCCCC1)N[C@@H](Cc1ccc(NC(=O)c2c(Cl)cncc2Cl)cc1)C(=O)O` [Example 62, (S)-3-{4-[(3,5-Dichloropyridine-4-carbonyl)amino]phenyl}-2-{3-[2-(piperidine-1-sulfonyl)phenyl]ureido}propionic acid] was tested, and the IC50 was under 100 nM.
`COc1ccc(OC)c(S(=O)(=O)c2ccc(Cl)cc2NC(=O)N[C@@H](Cc2ccc(NC(=O)c3c(Cl)cncc3Cl)cc2)C(=O)O)c1` [Example 64, (S)-2-{3-[5-Chloro-2-(2,5-dimethoxybenzenesulfonyl)phenyl]ureido}-3-{4-[(3,5-dichloropyridine-4-carbonyl)amino]phenyl}propionic acid] showed an IC50 of under 100 nM.
`CN(C1CCCCC1)S(=O)(=O)c1ccccc1NC(=O)N[C@@H](Cc1ccc(NC(=O)c2c(Cl)cncc2Cl)cc1)C(=O)O` [Example 66] showed an IC50 of under 100 nM.
In the case of `O=C(Nc1cc(Cl)ccc1S(=O)(=O)c1ccccc1)N[C@@H](Cc1ccc(NC(=O)c2c(Cl)cncc2Cl)cc1)C(=O)O` [Example 68, (S)-2-[3-(2-Benzenesulfonyl-5-chlorophenyl)ureido]-3-{4-[(3,5-dichloropyridine-4-carbonyl)amino]phenyl}propionic acid], the IC50 is reported as under 100 nM.
`O=C(Nc1ccccc1S(=O)(=O)c1ccccc1)N[C@@H](Cc1ccc(NC(=O)c2c(Cl)cncc2Cl)cc1)C(=O)O` [Example 70, (S)-2-[3-(2-Benzenesulfonylphenyl)ureido]-3-{4-[(3,5-dichloropyridine-4-carbonyl)amino]phenyl}propionic acid] showed an IC50 of under 100 nM.
For `O=C(Nc1cccc(C(=O)c2ccccc2)c1)N[C@@H](Cc1ccc(NC(=O)c2c(Cl)cncc2Cl)cc1)C(=O)O` [Example 77, (S)-3(4-{[1-(3,5-Dichloropyridin-4-yl)methanoyl]amino}phenyl)-2-{3-[3-(1-phenylmethanoyl)phenyl]ureido}propionic acid], the IC50 was under 100 nM.
Work on `CN(C(=O)N[C@@H](Cc1ccc(NC(=O)c2c(Cl)cncc2Cl)cc1)C(=O)O)c1ccccc1Cc1ccccc1` [Example 79, (S)-2-[3-(2-Benzylphenyl)-3-methylureido]-3-(4-{[1-(3,5-dichloropyridin-4-yl)methandyl]amino}-phenyl)propionic acid] yielded an IC50 of under 100 nM.
For `CN(C(=O)c1ccccc1NC(=O)N[C@@H](Cc1ccc(NC(=O)c2c(Cl)cncc2Cl)cc1)C(=O)O)C1CCCCC1` [Example 80], the IC50 was under 100 nM.
`CN(C(=O)N[C@@H](Cc1ccc(NC(=O)c2c(Cl)cncc2Cl)cc1)C(=O)O)c1ccccc1C(=O)N(C)C1CCCCC1` [Example 81] was tested, and the IC50 was under 100 nM.
`CCCCCN(C(=O)N[C@@H](Cc1ccc(NC(=O)c2c(Cl)cncc2Cl)cc1)C(=O)O)c1ccccc1C(=O)N(C)C1CCCCC1` [Example 84] showed an IC50 of under 100 nM.
`CN(C(=O)c1ccccc1N(Cc1ccccc1)C(=O)N[C@@H](Cc1ccc(NC(=O)c2c(Cl)cncc2Cl)cc1)C(=O)O)C1CCCCC1` [Example 85] was tested, and the IC50 was under 100 nM.
For `CN(C(=O)c1ccccc1N(CC1CCCCC1)C(=O)N[C@@H](Cc1ccc(NC(=O)c2c(Cl)cncc2Cl)cc1)C(=O)O)C1CCCCC1` [Example 86], the IC50 was under 100 nM.
For `CN(C(=O)N[C@@H](Cc1ccc(NC(=O)c2c(Cl)cncc2Cl)cc1)C(=O)O)c1ccccc1S(=O)(=O)N1CCCCC1` [Example 88, (S)-3-(4-{[1-(3,5-Dichloropyridin-4-yl)methyanoyl]amino}phenyl)-2-{3-methyl-3-[2-(piperidine-1-sulfonyl)phenyl]ureido}propionic acid.], the IC50 was under 100 nM.
With `O=C(Nc1ccccc1S(=O)(=O)C1CCCC1)N[C@@H](Cc1ccc(NC(=O)c2c(Cl)cncc2Cl)cc1)C(=O)O` [Example 92, (S)-2-[3-(2-Cyclopentanesulfonylphenyl)ureido]-3-(4-{[1-(3,5-dichloropyridin-4-yl)methanoyl]amino}phenyl)propionic acid] the IC50 was under 100 nM.
In the case of `CC(C)(C)S(=O)(=O)c1ccccc1NC(=O)N[C@@H](Cc1ccc(NC(=O)c2c(Cl)cncc2Cl)cc1)C(=O)O` [Example 94, (S)-3-(4-{[1-(3,5-Dichloropyridin-4-yl)methanoyl]amino}phenyl)-2-{3-[2-(2-methylpropane-2-sulfonyl)phenyl]ureido}propionic acid], the IC50 is reported as under 100 nM.
`Cc1csc2nc(Sc3ccccc3NC(=O)N[C@@H](Cc3ccc(NC(=O)c4c(Cl)cncc4Cl)cc3)C(=O)O)cnc12` [Example 96, (S)-3-(4-{[1-(3,5-Dichloropyridin-4-yl)methanoyl]amino}phenyl)-2-(3-[2-(7-methylthieno[2,3-b]pyrazin-3-ylsulfanyl)phenyl]ureido}propionic acid] showed an IC50 of under 100 nM.
In the case of `O=C(Nc1ccccc1Sc1c(Cl)cncc1Cl)N[C@@H](Cc1ccc(NC(=O)c2c(Cl)cncc2Cl)cc1)C(=O)O` [Example 98, (S)-3-(4-{[1-(3,5-Dichloropyridin-4-yl)methanoyl]amino}phenyl)-2-{3-[2-(3,5-dichloropyridin-4-ylsulfanyl)phenyl]ureido}propionic acid], the IC50 is reported as under 100 nM.
`Cc1ccc(C(=O)Nc2ccc(C[C@H](NC(=O)Nc3ccccc3S(=O)(=O)c3ccccc3)C(=O)O)cc2)c(Cl)n1` [Example 103, (S)-2-[3-(2-Benzenesulfonylphenyl)ureido]-3-(4-{[1-(2-chloro-6-methylpyridin-3-yl)methanoyl]amino}phenyl)propionic acid] gave an IC50 of under 100 nM.
With `COc1cncc(OC)c1C(=O)Nc1ccc(C[C@H](NC(=O)Nc2ccccc2S(=O)(=O)c2ccccc2)C(=O)O)cc1` [Example 105, (S)-2-[3-(2-Benzenesulfonylphenyl)ureido]-3-(4-{[1-(3,5-dimethoxypyridin-4-yl)-methanoyl]amino}phenyl)propionic acid] the IC50 was under 100 nM.
For `O=C(Nc1ccccc1S(=O)(=O)c1ccccc1)N[C@@H](Cc1ccc(NC(=O)c2c(Br)cncc2Br)cc1)C(=O)O` [Example 106, (S)-2-[3-(2-Benzenesulfonylphenyl)ureido]-3-(4-{[1-(3,5-dibromopyridin-4-yl)-methanoyl]amino}phenyl)propionic acid], the IC50 was under 100 nM.
`O=C(Nc1ccccc1S(=O)(=O)c1ccccc1)N[C@@H](Cc1ccc(NCc2c(Cl)cncc2Cl)cc1)C(=O)O` [Example 110, (S)-2-[3-(2-Benzenesulfonylphenyl)ureido]-3-{4-[(3,5-dichloropyridin-4-ylmethyl)amino]phenyl}propionic acid] showed an IC50 of under 100 nM.
Work on `O=C(Nc1ccccc1S(=O)(=O)c1ccccc1)N[C@@H](Cc1ccc(OC(=O)c2c(Cl)cncc2Cl)cc1)C(=O)O` [Example 116, 3,5-Dichloroisonicotinic acid 4-{(S)-2-[3-(2-benzenesulfonylphenyl)ureido]-2-carboxyethyl}phenyl ester] yielded an IC50 of under 100 nM.
